Experiments:
[1] = tested on: Mus musculus; test: Anticonvulsant activity in Mus musculus Swiss albino (mouse) assessed as protection against pentylenetetrazole-induced seizures at 50 mg/kg, ip administered 1 hr prior to pentylenetetrazole-challenge measured up to 1 hr relative to control; format: functional; conditions: route intraperitoneal
[2] = tested on: Mus musculus; test: Anticonvulsant activity in Mus musculus Swiss albino (mouse) assessed as protection against pentylenetetrazole-induced seizures at 75 mg/kg, ip administered 1 hr prior to pentylenetetrazole-challenge measured up to 1 hr relative to control; format: functional; conditions: route intraperitoneal
[3] = tested on: Mus musculus; test: Anticonvulsant activity in ip dosed Mus musculus Swiss albino (mouse) assessed as protection against pentylenetetrazole-induced seizures administered 1 hr prior to pentylenetetrazole-challenge measured up to 1 hr; format: functional; conditions: read-out: PD50
[4] = tested on: Mus musculus; test: Anticonvulsant activity in Mus musculus Swiss albino (mouse) assessed as protection against pentylenetetrazole-induced seizures at 100 mg/kg, ip administered 1 hr prior to pentylenetetrazole-challenge measured up to 1 hr relative to control; format: functional; conditions: route intraperitoneal
[5] = tested on: Mus musculus; test: Anticonvulsant activity in ip dosed Mus musculus Swiss albino (mouse) assessed as protection against pentylenetetrazole-induced seizures administered 1 hr prior to pentylenetetrazole-challenge measured up to 1 hr relative to phenobarbital; format: functional
[6] = Toxicity in ip dosed Mus musculus albino (mouse) after 24 hr; format: organism-based; conditions: in vivo
[7] = tested on: Mus musculus; test: Toxicity in Mus musculus albino (mouse) assessed as mortality at 600 to 2400 mg/kg, ip after 24 hr; format: organism-based; design: dose 600-2400 mg/kg, route intraperitoneal; conditions: in vivo
[8] = tested on: Mus musculus; test: Toxicity in Mus musculus albino (mouse) assessed as mortality at 300 mg/kg, ip after 24 hr; format: organism-based; design: dose 300 mg/kg, route intraperitoneal; conditions: in vivo
[9] = tested on: Mus musculus; test: Toxicity in Mus musculus albino (mouse) assessed as mortality at 160 to 400 mg/kg, ip after 24 hr; format: organism-based; design: dose 160-400 mg/kg, route intraperitoneal; conditions: in vivo
[10] = tested on: Mus musculus; test: Anticonvulsant activity in Mus musculus Swiss albino (mouse) assessed as protection against pentylenetetrazole-induced seizures at 30 mg/kg, ip administered 1 hr prior to pentylenetetrazole-challenge measured up to 1 hr relative to control; format: functional; conditions: route intraperitoneal
[11] = tested on: Mus musculus; test: Anticonvulsant activity in Mus musculus Swiss albino (mouse) assessed as protection against pentylenetetrazole-induced seizures at 10 mg/kg, ip administered 1 hr prior to pentylenetetrazole-challenge measured up to 1 hr relative to control; format: functional; conditions: route intraperitoneal
[12] = tested on: Mus musculus; test: Toxicity in Mus musculus albino (mouse) assessed as mortality at 100 mg/kg, ip after 24 hr; format: organism-based; design: dose 100 mg/kg, route intraperitoneal; conditions: in vivo
[13] = tested on: Mus musculus; test: Anticonvulsant activity in Mus musculus Swiss albino (mouse) assessed as protection against pentylenetetrazole-induced seizures at 20 mg/kg, ip administered 1 hr prior to pentylenetetrazole-challenge measured up to 1 hr relative to control; format: functional; conditions: route intraperitoneal

| Structure (SMILES) | Activity [1] [%] | Activity [2] [%] | ED50 [3] [mg/kg] | Activity [4] [%] | Activity [5] [%] | LD50 at 24 h [6] [mg/kg] | Activity [7] | Activity [8] | Activity [9] | Activity [10] [%] | Activity [11] [%] | Activity [12] | Activity [13] [%] |
| --- | --- | --- | --- | --- | --- | --- | --- | --- | --- | --- | --- | --- | --- |
| Cc1ccc(NC(=O)c2c(NC(=O)CCCCl)c(C#N)c3n2CCC3)cc1 | 0 | 20 | 112 | 40 | 19.4 |  |  |  |  |  |  |  |  |
| CN1C(=O)CN(c2ccc(Cl)cc2)C(=O)c2c1c(C#N)c1n2CCC1 | 20 | 20 | 133 | 40 | 15.1 |  |  |  |  |  |  |  |  |
| N#Cc1c(N2CCCC2=O)c(C(=O)Nc2ccccc2)n2c1CCC2 | 60 | 20 | 55.6 | 0 | 34.2 |  |  |  |  |  |  |  |  |
| Cc1ccc(N2CC(=O)Nc3c(C#N)c4n(c3C2=O)CCC4)cc1 | 0 | 20 | 167 | 20 | 10.9 |  |  |  |  |  |  |  |  |
| N#Cc1c2c(n3c1CCC3)C(=O)N(c1ccccc1)CC(=O)N2 | 20 | 40 | 117 | 40 | 14.9 |  |  |  |  |  |  |  |  |
| N#Cc1c(NC(=O)CCl)c(C(=O)Nc2ccc(Cl)cc2)n2c1CCC2 | 0 | 40 | 88.9 | 60 | 24.1 |  |  |  |  |  |  |  |  |
| Cc1ccc(NC(=O)c2c(NC(=O)CCl)c(C#N)c3n2CCC3)cc1 | 20 | 40 | 117 | 40 | 17.4 |  |  |  |  |  |  |  |  |
| Cc1ccc(NC(=O)c2c(N3CCCC3=O)c(C#N)c3n2CCC3)cc1 | 40 | 0 | 29.2 | 0 | 67.9 | 1010 | Toxic | Non-toxic |  |  |  |  |  |
| N#Cc1c2c(n3c1CCC3)C(=O)N(c1ccc(Cl)cc1)CC(=O)N2 | 0 | 0 | 183 | 20 | 10.6 |  |  |  |  |  |  |  |  |
| N#Cc1c(NC(=O)CCCCl)c(C(=O)Nc2ccccc2)n2c1CCC2 | 0 | 40 | 88.9 | 60 | 23.7 |  |  |  |  |  |  |  |  |
| Cc1ccc(N2CC(=O)N(C)c3c(C#N)c4n(c3C2=O)CCC4)cc1 | 0 | 20 | 167 | 20 | 11.4 |  |  |  |  |  |  |  |  |
| N#Cc1c(NC(=O)CCl)c(C(=O)Nc2ccccc2)n2c1CCC2 | 0 | 20 | 112 | 40 | 17.3 |  |  |  |  |  |  |  |  |
| N#Cc1c(NC(=O)CCCCl)c(C(=O)Nc2ccc(Cl)cc2)n2c1CCC2 | 20 | 40 | 117 | 40 | 19.7 |  |  |  |  |  |  |  |  |
| CCC1(c2ccccc2)C(=O)NC(=O)NC1=O [PHENOBARBITAL] |  |  | 14.4 |  |  | 251 |  |  | Toxic | 100 | 40 | Non-toxic | 60 |
| CN1C(=O)CN(c2ccccc2)C(=O)c2c1c(C#N)c1n2CCC1 | 0 | 20 | 112 | 40 | 16.2 |  |  |  |  |  |  |  |  |
| N#Cc1c(N2CCCC2=O)c(C(=O)Nc2ccc(Cl)cc2)n2c1CCC2 | 40 | 20 | 37.5 | 0 | 55.8 |  |  |  |  |  |  |  |  |
